According to ChEMBL document CHEMBL4256946, “Thiourea compounds and their use as inhibitors of sirt2 or sirt5” (2016):
Blank lines part the entries; values can stand above or below the compound they belong to. Activity calls are given as the source filed them. The rule behind the calls is not given here.

Tests used:
[1] = biological target: T1, NAD-dependent protein deacetylase sirtuin-2 (Homo sapiens, UniProt Q8IXJ6); assay: Inhibition of SIRT2 (unknown origin) assessed as reduction in enzyme-catalyzed desuccinylation reaction
T1 sequence (Q8IXJ6 whole entry): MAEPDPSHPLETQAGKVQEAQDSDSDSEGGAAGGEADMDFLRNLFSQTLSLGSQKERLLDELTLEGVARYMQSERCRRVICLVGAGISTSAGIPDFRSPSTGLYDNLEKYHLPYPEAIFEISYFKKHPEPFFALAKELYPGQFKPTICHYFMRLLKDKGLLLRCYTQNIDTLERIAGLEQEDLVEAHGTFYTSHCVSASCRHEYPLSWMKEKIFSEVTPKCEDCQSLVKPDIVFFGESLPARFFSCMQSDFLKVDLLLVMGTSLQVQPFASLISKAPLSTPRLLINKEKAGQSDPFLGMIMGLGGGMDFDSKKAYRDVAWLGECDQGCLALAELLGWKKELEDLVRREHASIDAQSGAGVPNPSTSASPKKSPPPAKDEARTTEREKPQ

[2] = biological target: T2, NAD-dependent protein deacetylase sirtuin-3, mitochondrial (Homo sapiens, UniProt Q9NTG7); assay: Inhibition of SIRT3 (unknown origin) assessed as reduction in enzyme-catalyzed desuccinylation reaction
T2 sequence (Q9NTG7 whole entry): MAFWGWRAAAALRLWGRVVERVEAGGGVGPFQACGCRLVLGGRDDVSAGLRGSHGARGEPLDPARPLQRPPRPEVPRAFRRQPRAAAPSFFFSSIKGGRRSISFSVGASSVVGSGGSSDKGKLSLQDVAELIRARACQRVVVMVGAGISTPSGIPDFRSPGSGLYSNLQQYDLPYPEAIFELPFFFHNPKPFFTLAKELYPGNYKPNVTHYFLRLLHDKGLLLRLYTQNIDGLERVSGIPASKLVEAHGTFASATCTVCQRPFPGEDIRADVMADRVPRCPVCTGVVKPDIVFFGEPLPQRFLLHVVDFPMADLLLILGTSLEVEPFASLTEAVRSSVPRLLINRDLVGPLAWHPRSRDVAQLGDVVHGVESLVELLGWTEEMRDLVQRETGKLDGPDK

[3] = biological target: T3, NAD-dependent protein deacetylase sirtuin-1 (Homo sapiens, UniProt Q96EB6); assay: Inhibition of SIRT1 (unknown origin) assessed as reduction in enzyme-catalyzed desuccinylation reaction
T3 sequence (Q96EB6 whole entry): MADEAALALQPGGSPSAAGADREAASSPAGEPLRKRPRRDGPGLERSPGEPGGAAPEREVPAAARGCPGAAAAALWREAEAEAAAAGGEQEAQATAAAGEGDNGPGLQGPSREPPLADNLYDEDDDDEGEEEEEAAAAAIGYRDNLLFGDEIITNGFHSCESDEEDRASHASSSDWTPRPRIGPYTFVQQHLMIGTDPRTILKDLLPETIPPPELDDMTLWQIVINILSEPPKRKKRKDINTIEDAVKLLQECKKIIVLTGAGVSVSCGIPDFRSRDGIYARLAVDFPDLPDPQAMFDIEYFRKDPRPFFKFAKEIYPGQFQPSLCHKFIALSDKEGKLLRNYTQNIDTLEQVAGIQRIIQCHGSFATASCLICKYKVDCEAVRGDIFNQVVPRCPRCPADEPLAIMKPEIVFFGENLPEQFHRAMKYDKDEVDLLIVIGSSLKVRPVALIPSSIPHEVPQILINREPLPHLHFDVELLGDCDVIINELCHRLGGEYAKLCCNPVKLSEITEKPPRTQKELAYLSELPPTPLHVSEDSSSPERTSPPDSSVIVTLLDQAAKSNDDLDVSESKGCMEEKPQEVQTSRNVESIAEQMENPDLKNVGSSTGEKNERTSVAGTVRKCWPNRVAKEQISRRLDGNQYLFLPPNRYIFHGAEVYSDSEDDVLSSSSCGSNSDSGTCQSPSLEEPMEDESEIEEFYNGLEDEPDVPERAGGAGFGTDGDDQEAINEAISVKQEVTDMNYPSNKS

MCF7 [4] = assay: Growth inhibition of human MCF7 cells at 25 uM incubated for 10 days by crystal violet staining based assay; format: functional, cell-based
[5] = biological target: NAD-dependent protein deacylase sirtuin-5, mitochondrial (Homo sapiens) (UniProt Q9NXA8); assay: Inhibition of SIRT5 in human HeLa cells assessed as increase in protein succinylation level at 100 uM after 24 to 48 hrs by Western blot analysis; format: cell-based
Chain of NAD-dependent protein deacylase sirtuin-5, mitochondrial (Homo sapiens) (Q9NXA8 37-310 limits assumed): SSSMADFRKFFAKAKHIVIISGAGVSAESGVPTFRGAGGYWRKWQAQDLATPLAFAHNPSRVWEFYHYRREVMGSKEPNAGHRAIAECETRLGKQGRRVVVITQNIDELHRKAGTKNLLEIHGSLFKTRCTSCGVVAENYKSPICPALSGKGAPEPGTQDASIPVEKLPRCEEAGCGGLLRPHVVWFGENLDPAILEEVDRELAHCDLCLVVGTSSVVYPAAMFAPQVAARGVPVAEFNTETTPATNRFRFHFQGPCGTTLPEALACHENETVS

[6] = biological target: T4, NAD-dependent protein deacetylase sirtuin-1 (Homo sapiens) (UniProt Q96EB6); assay: Inhibition of SIRT1 (unknown origin) assessed as reduction in enzyme-catalyzed desuccinylation reaction at 256 uM
T4 sequence (whole entry): T3 sequence (Q96EB6 whole entry)

[7] = biological target: T5, NAD-dependent protein deacetylase sirtuin-2 (Homo sapiens) (UniProt Q8IXJ6); assay: Inhibition of SIRT2 (unknown origin) assessed as reduction in enzyme-catalyzed desuccinylation reaction at 256 uM
T5 sequence (whole entry): T1 sequence (Q8IXJ6 whole entry)

[8] = biological target: NAD-dependent protein deacylase sirtuin-5, mitochondrial (Homo sapiens) (UniProt Q9NXA8); assay: Substrate activity at SIRT5 (unknown origin) assessed as compound-NAD covalent intermediate formation by measuring parent compound consumption measured after 18 hrs by liquid chromatography-mass spectrometry method
[9] = biological target: NAD-dependent protein deacylase sirtuin-5, mitochondrial (Homo sapiens) (UniProt Q9NXA8); assay: Substrate activity at SIRT5 (unknown origin) assessed as compound-NAD covalent intermediate formation by measuring 3-((3aR,5R,6R,6aR)-5-((((((2R,3S,4R,5R)-5-(6-amino-9H-purin-9-yl)-3,4-dihydroxytetrahydrofuran-2-yl)methoxy)(hydroxy)phosphoryloxy)(hydroxy)phosphoryloxy)methyl)-2-((S)-5-(benzyloxycarbonylamino)-6-oxo-6-(phenylamino)hexylamino)-6-hydroxytetrahydrofuro[2,3-d][1,3]oxathiol-2-ylamino)propanoic acid level measured after 5 hrs by liquid chromatography-mass spectrometry method
[10] = biological target: NAD-dependent protein deacylase sirtuin-5, mitochondrial (Homo sapiens) (UniProt Q9NXA8); assay: Substrate activity at SIRT5 (unknown origin) assessed as compound-NAD covalent intermediate formation by measuring 2-((2R,3R,4S,5R)-5-((((((2R,3S,4R,5R)-5-(6-amino-9H-purin-9-yl)-3,4-dihydroxytetrahydrofuran-2-yl)methoxy)(hydroxy)phosphoryloxy)(hydroxy)phosphoryloxy)methyl)-3,4-dihydroxytetrahydrofuran-2-yl)-1-((S)-5-(benzyloxycarbonylamino)-6-oxo-6-(phenylamino)hexyl)-3-(2-carboxyethyl)isothiouronium level measured after 5 hrs by liquid chromatography-mass spectrometry method
[11] = biological target: NAD-dependent protein deacylase sirtuin-5, mitochondrial (Homo sapiens) (UniProt Q9NXA8); assay: Substrate activity at SIRT5 (unknown origin) assessed as compound-NAD covalent intermediate formation by measuring (S)-3,11-dioxo-1-phenyl-5-(phenylcarbamoyl)-2-oxa-4,10,12-triazapentadecan-15-oic acid level measured after 18 hrs by liquid chromatography-mass spectrometry method
[12] = biological target: NAD-dependent protein deacylase sirtuin-5, mitochondrial (Homo sapiens) (UniProt Q9NXA8); assay: Substrate activity at SIRT5 (unknown origin) assessed as compound-NAD covalent intermediate formation by measuring 2-((2R,3R,4R,5R)-5-((((((2R,3S,4R,5R)-5-(6-amino-9H-purin-9-yl)-3,4-dihydroxytetrahydrofuran-2-yl)methoxy)(hydroxy)phosphoryloxy)(hydroxy)phosphoryloxy)methyl)-4-hydroxy-2-mercaptotetrahydrofuran-3-yl)-1-((S)-5-(benzyloxycarbonylamino)-6-oxo-6-(phenylamino)hexyl)-3-(2-carboxyethyl)isouronium level measured after 15 mins by liquid chromatography-mass spectrometry method
[13] = biological target: NAD-dependent protein deacylase sirtuin-5, mitochondrial (Homo sapiens) (UniProt Q9NXA8); assay: Substrate activity at SIRT5 (unknown origin) assessed as compound-NAD covalent intermediate formation by measuring 2-((2R,3R,4R,5R)-5-((((((2R,3S,4R,5R)-5-(6-amino-9H-purin-9-yl)-3,4-dihydroxytetrahydrofuran-2-yl)methoxy)(hydroxy)phosphoryloxy)(hydroxy)phosphoryloxy)methyl)-4-hydroxy-2-mercaptotetrahydrofuran-3-yl)-1-((S)-5-(benzyloxycarbonylamino)-6-oxo-6-(phenylamino)hexyl)-3-(2-carboxyethyl)isouronium level measured after 7 hrs by liquid chromatography-mass spectrometry method
[14] = biological target: NAD-dependent protein deacylase sirtuin-5, mitochondrial (Homo sapiens) (UniProt Q9NXA8); assay: Substrate activity at SIRT5 (unknown origin) assessed as compound-NAD covalent intermediate formation by measuring 2-((2R,3R,4S,5R)-5-((((((2R,3S,4R,5R)-5-(6-amino-9H-purin-9-yl)-3,4-dihydroxytetrahydrofuran-2-yl)methoxy)(hydroxy)phosphoryloxy)(hydroxy)phosphoryloxy)methyl)-3,4-dihydroxytetrahydrofuran-2-yl)-1-((S)-5-(benzyloxycarbonylamino)-6-oxo-6-(phenylamino)hexyl)-3-(2-carboxyethyl)isothiouronium level measured after 15 mins by liquid chromatography-mass spectrometry method
[15] = biological target: NAD-dependent protein deacylase sirtuin-5, mitochondrial (Homo sapiens) (UniProt Q9NXA8); assay: Mechanism based inhibition of SIRT5 (unknown origin) incubated in presence of NAD for 15 mins by liquid chromatography-mass spectrometry method
[16] = biological target: NAD-dependent protein deacylase sirtuin-5, mitochondrial (Homo sapiens) (UniProt Q9NXA8); assay: Substrate activity at SIRT5 (unknown origin) assessed as compound-NAD covalent intermediate formation by measuring 3-((3aR,5R,6R,6aR)-5-((((((2R,3S,4R,5R)-5-(6-amino-9H-purin-9-yl)-3,4-dihydroxytetrahydrofuran-2-yl)methoxy)(hydroxy)phosphoryloxy)(hydroxy)phosphoryloxy)methyl)-2-((S)-5-(benzyloxycarbonylamino)-6-oxo-6-(phenylamino)hexylamino)-6-hydroxytetrahydrofuro[2,3-d][1,3]oxathiol-2-ylamino)propanoic acid level measured after 15 mins by liquid chromatography-mass spectrometry method
[17] = biological target: NAD-dependent protein deacylase sirtuin-5, mitochondrial (Homo sapiens) (UniProt Q9NXA8); assay: Inhibition of SIRT5 (unknown origin) assessed as reduction in enzyme-catalyzed desuccinylation reaction at 200 uM
MDA-MB-468 = assay: Inhibition of foci formation in human MDA-MB-468 cells at 10 to 100 uM; format: functional, cell-based
MDA-MB-231 = assay: Inhibition of foci formation in human MDA-MB-231 cells at 10 to 100 uM; format: functional, cell-based
[18] = biological target: NAD-dependent protein deacylase sirtuin-6 (Homo sapiens, UniProt Q8N6T7); assay: Inhibition of SIRT6 (unknown origin) assessed as reduction in enzyme-catalyzed desuccinylation reaction
Chain of NAD-dependent protein deacylase sirtuin-6 (Q8N6T7 whole entry): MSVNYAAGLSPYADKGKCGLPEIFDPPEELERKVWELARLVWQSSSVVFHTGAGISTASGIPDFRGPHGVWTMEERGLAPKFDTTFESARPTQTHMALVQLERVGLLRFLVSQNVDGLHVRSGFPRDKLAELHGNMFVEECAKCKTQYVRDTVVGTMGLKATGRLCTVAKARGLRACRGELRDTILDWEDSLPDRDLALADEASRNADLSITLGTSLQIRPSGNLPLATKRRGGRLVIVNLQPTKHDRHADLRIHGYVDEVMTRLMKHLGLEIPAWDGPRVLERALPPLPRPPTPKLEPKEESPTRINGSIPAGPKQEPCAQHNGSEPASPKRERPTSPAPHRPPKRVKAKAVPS

[19] = biological target: NAD-dependent protein deacylase sirtuin-5, mitochondrial (Homo sapiens) (UniProt Q9NXA8); assay: Inhibition of SIRT5 in human MCF7 cells assessed as increase in protein succinylation level at 100 uM after 48 to 72 hrs by Western blot analysis; format: cell-based
MCF7 [20] = assay: Inhibition of foci formation in human MCF7 cells at 10 to 100 uM; format: functional, cell-based

IC50 [1]: Not Active
IC50 [2]: Not Active
IC50 [3]: Not Active
SMILES: O=C(O)CCNC(=S)NCCCC[C@H](NC(=O)OCc1ccccc1)C(=O)Nc1cccc(O)c1

inhibition [5]: Active
SMILES: CCOC(=O)CCNC(=S)NCCCC[C@H](NC(=O)OCc1ccccc1)C(=O)NC1CCSc2ccccc21 (some centres not stated)
growth inhibition (GI) (MCF7 [4]): Active

inhibition [6]: inactive
inhibition [7]: inactive
SMILES: O=C(O)CCC(=S)NCCCC[C@H](NC(=O)OCc1ccccc1)C(=O)Nc1ccccc1

IC50 [1]: Not Active
IC50 [2]: Not Active
IC50 [3]: Not Active
SMILES: O=C(O)CCNC(=S)NCCCC[C@H](NC(=O)OCc1ccccc1)C(=O)NC1CCSc2ccccc21 (some centres not stated)
growth inhibition (GI) (MCF7 [4]): inactive

inhibition [6]: inactive
inhibition [7]: inactive
Activity [8]: inactive
SMILES: O=C(O)CCCC(=S)NCCCC[C@H](NC(=O)OCc1ccccc1)C(=O)Nc1ccccc1

Activity [9]: Active
Activity [10]: Active
Activity [11]: Active
Activity [12]: Active
Activity [13]: Active
Activity [14]: Active
inhibition [6]: inactive
inhibition [7]: inactive
inhibition [15]: Active
Activity [16]: Active
Activity [8]: Active
SMILES: O=C(O)CC(=S)NCCCC[C@H](NC(=O)OCc1ccccc1)C(=O)Nc1ccccc1

inhibition [17]: 20%
IC50 [2]: Not Active
IC50 [18]: Not Active
inhibition [19]: Active
SMILES: CCOC(=O)CCNC(=S)NCCCC[C@H](NC(=O)OCc1ccccc1)C(=O)Nc1cccc(O)c1
inhibition (MDA-MB-468): Dose-dependent effect
inhibition (MDA-MB-231): Dose-dependent effect
inhibition (MCF7 [20]): Dose-dependent effect
